{"source": "patent US11351218B2", "about": "“Composition for preventing or treating glioblastoma comprising Platycodon grandiflorum A. De Candolle, Scutellaria baicalensis, Phellodendron amurense Ruprecht or Rubus coreanus” (University-Industry Cooperation Group of Kyung Hee …, priority 2019, dated 2022)", "key": {"U373 cells": {"system": "U373 cells", "assay": "GFP-LC3B puncta assay (confocal microscopy), U373 cells", "assay_type": "cell-based, human", "conditions": "U373, 10 μM PD, 24 hours", "experimental": "The cells transiently expressing GFP-LC3 (green) were treated with DMSO or PD (10 μM) for 24 hours and analyzed by confocal microscopy. Nuclei were stained with DAPI (blue). Quantification shown on the right graph represents mean GFP-LC3B puncta per cells from three independent experiments±SD.\nCultured cells seeded in plates with microscope coverslips were transfected with a pGFP-LC3B plasmid using Lipofectamine 3000 (Thermo Fisher Scientific) according to the manufacturer's instructions. After the transfection, the cells were fixed with 4% paraformaldehyde (PFA) in phosphate-buffered saline (PBS) at room temperature for 10 minutes. The images were examined under a laser confocal microscope (Zeiss, Oberkochen, Baden-Wurttemberg, Germany).\nTo confirm the western blot data, the LC3B accumulation in GBM cells was monitored using a confocal microscope. Both U87MG and U373MG cells transfected with a green fluorescent protein (GFP)-tagged LC3 expression plasmid were treated with 10 μM PD for 24 hours and examined under a confocal microscope."}, "U87MG and U373MG cells": {"system": "U87MG and U373MG cells", "assay": "WST1 cell viability assay, GBM cells", "assay_type": "cell-based, human", "experimental": "FIGS. 6A and 6B show the results that PD induces a decrease in cell viability and vacuole formation. […] Data shown represent the means of quintuplicate measurements which were repeated three times. The results are presented as a percentage of control (means±SD).\nCell cytotoxicity was assessed by WST1 assay. U87 and U373 cells were each seeded in a 96-well plate (5×10^3 cells/well) and treated with different concentrations of platycodin D (PD). Then, cells were incubated with a WST1 reagent (Dogen, Seoul, Korea) for 2 hours before reading the plate. Absorbance was measured at 450 nm using an ELISA reader (Versa Max, Molecular Devices, Sunnyvale, Calif., USA)."}, "[1]": {"system": "A549, H358, MCF7, HT29 and HepG2 cells", "assay": "Cell morphology (vacuoles) under optical microscope in various cancer cell lines", "assay_type": "cell-based", "conditions": "PG 500 μg/mL or PD 10 μM, 24 hours"}, "LDLR": {"system": "LDLR", "assay": "Immunoblot of LDLR in U87MG, U373MG cells and normal astrocytes", "assay_type": "cell-based, human", "conditions": "24 hours", "experimental": "(§1) FIGS. 16A to 16D show the results that PD increases the expression of LDLR on cell surfaces in GBM cells. […] GAPDH was used as a loading control. […] GAPDH was used as a loading control.\nCells treated with the concentrations and materials described in FIGS. 1-3B, 7, 8, 10, 13, 16, 18, and 20 were lysed in buffer containing 20 mM Tris-HCl (pH 7.5), 150 mM NaCl, 1 mM EDTA, 1 mM Na2EDTA, 1 mM EGTA, 1% NP-40, 1% sodium deoxycholate, 1 mM Na3VO4, 1 mM MPI, 1 mM PMSF, and PI cocktails for 15 to 20 minutes on ice. Cell lysates were separated by SDS-PAGE and transferred to nitrocellulose membranes. Immunodetection was performed with the following primary antibodies: rabbit anti-LC3B, rabbit anti-cathepsin B, rabbit-anti GAPDH (Cell Signaling Technology, Danvers, Mass.), mouse anti-SQSTM1/p62, and goat anti-cathepsin D (Santa CruzKPL, Gaithersburg, Md., USA) were incubated at room temperature for 1 hour. The protein bands were detected with ECL western Blotting Substrate (Thermo Fisher Scientific, Waltham, Mass., USA).\n(§2) Brain is the most cholesterol-rich organ of the body, containing about 20% of total body cholesterol. […] As can be confirmed in FIG. 16A, in consistent with these reports, the LDLR protein level was markedly elevated in U87MG and U373MG cells relative to normal human astrocytes. […] Then, the cell surface expression of LDLR was confirmed by flow cytometry."}, "cell-surface LDLR": {"system": "cell-surface LDLR", "assay": "Cell surface LDLR analysis by flow cytometry, GBM cells", "assay_type": "cell-based, human", "conditions": "PD 10 μM or U18666a 1 μM, 24 hours", "experimental": "as §1\nCells treated as described in FIG. 16 were separated from plates and resuspended in PBS. After washing with 1% BSA in PBS, the cells were incubated with a primary antibody against human LDLR (Abcam) for 30 minutes. Then, the cells were washed before incubation with an Alexa-Fluor 488-conjugated secondary antibody (Invitrogen) for 30 minutes. The stained cells were washed and resuspended. Fluorescence was analyzed by a FACScalibur flow cytometer (Becton Dickinson, San Jose, Calif., USA) using CellQuest™ software.\nas §2"}, "normal astrocytes": {"system": "normal astrocytes", "assay": "BODIPY FL LDL uptake assay, normal astrocytes", "assay_type": "cell-based, human", "conditions": "PD 10 μM or U18 1 μM, 24 hours", "experimental": "Cells were treated with DMSO, PD (10 μM), or U18 (1 μM) for 24 hours and subsequently loaded with BODIPY™ FL LDL. BODIPY-LDL uptake was visualized by confocal microscopy. Nuclei were stained with DAPI (blue). Quantification shown on the right graph represents a relative fold change from three independent experiments±SD.\nCells seeded on coverslips were treated with the materials and then the culture medium was replaced with BODIPY™ FL LDL (Thermo Fisher Scientific) at a working concentration of 5 μg/mL in a medium. The cells were additionally incubated at 37° C. for 1 hour. The degree of LDL uptake was measured using a Zeiss laser confocal microscope.\nBased on the previous study results of the present inventors that PD increases cell surface LDLR expression and accumulate cholesterol within lysosomes, whether PD can increase the uptake of exogenous LDL was examined Cells pretreated with PD or U18666A were incubated with BODIPY FL-labeled LDL particles for 1 hour and the LDL uptake was observed by a confocal microscope. Upon analysis of these cells, it was observed that PD caused about a 6-fold increase in LDL uptake and it was a level similar to that detected in the U18666A-treated cells."}}}
{"smiles": "C[C@@H]1O[C@@H](O[C@H]2[C@H](OC(=O)[C@]34CCC(C)(C)C[C@H]3C3=CC[C@@H]5[C@@]6(C)C[C@H](O)[C@H](O[C@@H]7O[C@H](CO)[C@@H](O)[C@H](O)[C@H]7O)C(CO)(CO)[C@@H]6CC[C@@]5(C)[C@]3(C)C[C@H]4O)OC[C@H](O)[C@@H]2O)[C@H](O)[C@H](O)[C@H]1O[C@@H]1OC[C@@H](O)[C@H](O[C@@H]2OC[C@](O)(CO)[C@H]2O)[C@H]1O", "note": "[PD, platycodin D]", "values": [{"measurement": "fold increase of GFP-LC3 puncta per cell vs DMSO", "setting": "U373 cells", "value": 8.9, "unit": "fold"}, {"measurement": "GFP-LC3 puncta per cell", "setting": "U373 cells; mean±SD", "value": "32.84±3.98"}, {"measurement": "viability of GBM cells", "setting": "U87MG and U373MG cells; 10 μM PD, 3 days", "value": "reduced the viability"}, {"measurement": "percentage of viable cells", "setting": "U87MG and U373MG cells; PD 0-20 μM, 48 hours, dose-dependent", "value": "significantly decreased"}, {"measurement": "cell viability", "setting": "U87MG and U373MG cells; PD 10 μM, 48 hours, GBM cells, percentage of control", "value": "approximately 60%"}, {"measurement": "vacuoles", "setting": "[1]", "value": "visible vacuoles were observed"}, {"measurement": "LDLR expression", "setting": "LDLR; PD 5 μM and 10 μM or U18666a 1 μM, U87MG, U373MG and normal astrocytes", "value": "significantly increased"}, {"measurement": "degree of LDLR expression, GBM cells vs normal astrocytes", "setting": "LDLR; PD 5 μM and 10 μM", "value": "more prominent in GBM cells than in normal astrocytes"}, {"measurement": "cell surface expression of LDLR", "setting": "cell-surface LDLR", "value": "shift of the FL-1 histogram peak toward right"}, {"measurement": "LDL uptake", "setting": "normal astrocytes", "value": "less effective"}]}
